pIC50: −log10 of the molar value.

In general, pIC50 refers to the IC50 on a negative log10 scale, so that one unit is a factor of ten.

A short description of series [1]: Selectivity index, ratio of IC50 for rat L6 cells to IC50 for erythrocytic stage of chloroquine-sensitive Plasmodium falciparum NF54. It counts as toxicity. As to conditions: read-out: Ratio IC50.
The test system of series [2] is Plasmodium falciparum. The experiment in a line: Antiplasmodial activity against erythrocytic stage of chloroquine-sensitive Plasmodium falciparum NF54 assessed as reduction in [3H]hypoxanthine incorporation after 48 hrs by liquid scintillation counting method. It counts as functional.
A further series concerns L6. The experiment in a line: Cytotoxicity against rat L6 cells after 70 hrs by alamar blue staining based fluorometric assay. As to conditions: L6, 70 h. It is filed as cell-based. (Alamar Blue is a resazurin reagent that responds to reducing activity.)
The test system of series [3] is Plasmodium falciparum. In words: Antiplasmodial activity against erythrocytic stage of chloroquine/pyrimethamine-resistant Plasmodium falciparum K1 assessed as reduction in [3H]hypoxanthine incorporation after 48 hrs by liquid scintillation counting method. It is filed as functional.
Series [4] can be described thus: Selectivity index, ratio of IC50 for rat L6 cells to IC50 for erythrocytic stage of chloroquine/pyrimethamine-resistant Plasmodium falciparum K1. It counts as toxicity. As to conditions: L6 cells versus erythrocytic stage Plasmodium falciparum K1, read-out: Ratio IC50.
Series [5] has as its system Plasmodium berghei. In words: Antiplasmodial activity against erythrocytic stage of GFP-fused Plasmodium berghei ANKA infected in NMRI mouse assessed as mouse survival days at 50 mg/kg, ip for 4 days measured up to 30 days post infection (reference value: 4 day). It is filed as functional.
Series [6] deals with Plasmodium berghei. The experiment in a line: Antiplasmodial activity against erythrocytic stage of GFP-fused Plasmodium berghei ANKA infected in NMRI mouse assessed as reduction in parasitaemia at 50 mg/kg, ip for 4 days measured at 24 hrs post last dose by FACS analysis relative to control. It is filed as functional. More on the design: scale not given: the % may be the effect or the level left. (In general: A flow cytometer gives signals particle by particle.)

In series [7] the test system is Plasmodium berghei. The experiment in a line: Antiplasmodial activity against erythrocytic stage of GFP-fused Plasmodium berghei ANKA infected in NMRI mouse assessed as mouse survival days at 10 mg/kg, ip for 4 days measured up to 30 days post infection (reference value: 4 day). It is filed as functional.

Consider `O=C(c1cc(-c2ccc(CN3CCOCC3)cc2)nc2ccc(F)cc12)N1CCNCC1`, for which, in series [1], the selectivity ratio was found to be 13.5. The figures for the pIC50 in the series with Plasmodium falciparum [2] and with L6 (read-out: IC50) were 5.11 and 3.98, respectively.
For the compound `O=C(Nc1ccccc1)c1cc(-c2ccc(CN3CCOCC3)cc2)nc2ccc(F)cc12`, in series [1], the selectivity ratio is 10.1. Moreover, the pIC50 in the series on Plasmodium falciparum [2] was 5.75; in the series on L6 (read-out: IC50) it was 4.75.
Regarding `CC(C)(C)OC(=O)N1CCN(C(=O)c2cc(-c3ccc(CN4CCOCC4)cc3)nc3ccc(F)cc23)CC1`, the selectivity ratio in series [1] was 2.14. In addition, the pIC50 in the series on Plasmodium falciparum [2] is 4.86; with L6 (read-out: IC50), 4.53.
Turning to `O=C(c1cc(-c2ccc(CN3CCOCC3)cc2)nc2ccc(F)cc12)N1CCN(c2ccccc2)CC1`, in series [1], the selectivity ratio came out at 5. The figures for the pIC50 in the series on Plasmodium falciparum [2] and with L6 (read-out: IC50) were 5.31 and 4.61, respectively.
The like results for `O=C(Nc1ccc([N+](=O)[O-])cc1)c1cc(-c2ccc(CN3CCOCC3)cc2)nc2ccc(F)cc12` were, in that order, 65.7, 6.68 and 4.86.
With `Fc1ccc2nc(-c3ccc(CN4CCOCC4)cc3)cc(CN3CCN(c4ccccc4)CC3)c2c1`, the selectivity ratio in series [1] turned out to be 2.4. Further, the negative logarithm of the IC50 (pIC50) in the series on Plasmodium falciparum [2] was 4.88; with L6 (read-out: IC50), 4.50.
As to `CN(C)c1ccc(NC(=O)c2cc(-c3ccc(CN4CCOCC4)cc3)nc3ccc(F)cc23)cc1`, the selectivity ratio in series [1] worked out at 11.4. In addition, the values for the pIC50 with Plasmodium falciparum [2] and in the series with L6 (read-out: IC50) were 5.96 and 4.91, respectively.
For the compound `O=C(c1cc(-c2ccc(CN3CCOCC3)cc2)nc2ccc(F)cc12)N1CCN(C(=O)c2cc(-c3ccc(CN4CCOCC4)cc3)nc3ccc(F)cc23)CC1`, the selectivity ratio in series [1] is 19. For the same compound, the pIC50 with Plasmodium falciparum [2] is 5.17; in the series on L6 (read-out: IC50), 3.89.
Take `O=C(NCCN1CCN(c2ccccc2)CC1)c1cc(-c2ccc(CN3CCOCC3)cc2)nc2ccc(F)cc12`: the pIC50 in the series on Plasmodium falciparum [3] is 8.15; in the series on Plasmodium falciparum [2], 8.00; with L6 (read-out: IC50), 5.40. Also, the figures for the selectivity ratio in series [4] and in series [1] were 563 and 394, respectively. The MSD with Plasmodium berghei [5] was 4 days. The Activity with Plasmodium berghei [6] came to 17.1%.
In the case of `Fc1ccc2nc(-c3ccc(CN4CCOCC4)cc3)cc(CN3CCNCC3)c2c1`, the selectivity ratio in series [1] was 6.62. The pIC50 was 5.66 in the series with Plasmodium falciparum [2] and 4.84 in the series on L6 (read-out: IC50).
As to `N=C(N)N1CCN(C(=O)c2cc(-c3ccc(CN4CCOCC4)cc3)nc3ccc(F)cc23)CC1`, the selectivity ratio in series [1] worked out at 4.26. Further, the pIC50 with Plasmodium falciparum [2] was 4.31; in the series with L6 (read-out: IC50), 3.68.
Taken in the same sequence, the figures for `CN1CCN(C(=O)c2cc(-c3ccc(CN4CCOCC4)cc3)nc3ccc(F)cc23)CC1` were 26.6, 5.29 and 3.87.
Turning to `CCN(CC)C(=O)c1cc(-c2ccc(CN3CCOCC3)cc2)nc2ccc(F)cc12`, the selectivity ratio in series [1] amounted to 9.68. Besides, the pIC50 in the series on Plasmodium falciparum [2] is 4.90; with L6 (read-out: IC50), 3.92.
As to `O=C(NCCN1CCNCC1)c1cc(-c2ccc(CN3CCOCC3)cc2)nc2ccc(F)cc12`, in series [1], the selectivity ratio came to 103. The pIC50 was 6.28 in the series with Plasmodium falciparum [2] and 4.26 in the series on L6 (read-out: IC50).
In the case of `COc1ccc(NC(=O)c2cc(-c3ccc(CN4CCOCC4)cc3)nc3ccc(F)cc23)cc1`, the selectivity ratio in series [1] worked out at 11.5. The pIC50 is 6.23 in the series on Plasmodium falciparum [2] and 5.17 with L6 (read-out: IC50).
As to `CC(C)(C)OC(=O)N1CCN(CCNC(=O)c2cc(-c3ccc(CN4CCOCC4)cc3)nc3ccc(F)cc23)CC1`, the pIC50 in the series with Plasmodium falciparum [3] was 9.06; in the series with Plasmodium falciparum [2], 9.68; in the series on L6 (read-out: IC50), 4.87. In addition, the selectivity ratio in series [4] was 15500; in series [1] it was 64300. Further, the MSD in the series on Plasmodium berghei [5] was found to be 8.3 days. Further, the Activity in the series on Plasmodium berghei [6] came out at 98.1%.
As to `CN1CCN(Cc2cc(-c3ccc(CN4CCOCC4)cc3)nc3ccc(F)cc23)CC1`, in series [1], the selectivity ratio is 8.94. Moreover, the pIC50 in the series on Plasmodium falciparum [2] was 5.70; in the series on L6 (read-out: IC50), 4.75.
Regarding `CN1CCN(CCNC(=O)c2cc(-c3ccc(CN4CCOCC4)cc3)nc3ccc(F)cc23)CC1`, the selectivity ratio in series [1] was determined as 75.2. Also, the pIC50 is 5.96 in the series on Plasmodium falciparum [2] and 4.09 in the series with L6 (read-out: IC50).
As to `C[C@@H]1CC[C@H]2[C@@H](C)C(=O)O[C@@H]3O[C@@]4(C)CC[C@@H]1[C@]32OO4` [ARTEMISININ], the negative-log IC50 (pIC50) in the series with Plasmodium falciparum [3] was 8.19. Moreover, in series [4], the selectivity ratio was found to be 70300.
On to `O=C(NCCN1CCCC1)c1cc(-c2ccc(CN3CCOCC3)cc2)nc2ccc(F)cc12` [CABAMIQUINE], for which the pIC50 with Plasmodium falciparum [3] was 9.66; with Plasmodium falciparum [2] it was 9.89; in the series with L6 (read-out: IC50), 4.55. Moreover, the selectivity ratio stood at 129000 in series [4] and 219000 in series [1].
As to `CCN(CC)CCCC(C)Nc1ccnc2cc(Cl)ccc12` (stereo unspecified) [CHLOROQUINE], in the series with Plasmodium berghei [7], the MSD is 20 days.
The compound `COc1cc([C@@H]2c3cc4c(cc3[C@H](O)[C@H]3COC(=O)[C@H]23)OCO4)cc(OC)c1OC` [PODOFILOX] had a pIC50 in the series on L6 of 7.92.

The record behind these values is ChEMBL document CHEMBL4004888, “New derivatives of quinoline-4-carboxylic acid with antiplasmodial activity” (Bioorg Med Chem, 2017).
